Test results: patent US20220324862A1, “PYRIDOPYRIMIDINONE COMPOUNDS” (Acerand Therapeutics (USA) Limited, priority 2021, published 2022)

Target: T1, protein-protein interaction between SOS1 and KRAS-G12D (Homo sapiens, UniProt Q07889)
T1 construct: The purified GST-SOS1 catalytic domain (residues 564-1049) was first diluted in assay buffer; made in house; host or cells: E. coli BL21 (DE3) for SOS1; E. coli BL21 carrying a BirA plasmid for KRAS-G12D
T1 sequence (Q07889 564-1049): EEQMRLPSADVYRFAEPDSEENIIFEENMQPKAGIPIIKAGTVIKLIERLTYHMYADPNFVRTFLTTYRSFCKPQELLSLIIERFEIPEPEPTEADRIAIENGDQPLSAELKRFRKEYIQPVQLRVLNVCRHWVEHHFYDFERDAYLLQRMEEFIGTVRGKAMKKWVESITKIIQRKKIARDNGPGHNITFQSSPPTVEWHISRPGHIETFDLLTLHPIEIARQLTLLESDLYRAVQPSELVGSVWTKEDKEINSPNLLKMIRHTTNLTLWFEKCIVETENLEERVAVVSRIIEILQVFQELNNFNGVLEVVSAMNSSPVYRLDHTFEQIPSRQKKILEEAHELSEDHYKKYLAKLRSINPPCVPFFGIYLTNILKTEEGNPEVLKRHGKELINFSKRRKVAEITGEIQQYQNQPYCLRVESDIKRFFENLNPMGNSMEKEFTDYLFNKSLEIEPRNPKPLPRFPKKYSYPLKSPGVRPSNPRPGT
Test: HTRF Based Protein-Protein Interaction Assay
Format: binding
Settings: HTRF; GST-SOS1 2.5 nM, KRAS-G12D 100 nM, GDP 10 uM; read-out: IC50 value, inhibition of SOS1/KRAS-G12D protein-protein interaction
Source text: A KRAS-G12D and SOS1 binding/interaction assay was designed to measure the interaction between KRAS-G12D and SOS1 proteins. Utilizing HTRF (Homogeneous Time-Resolved Fluorescence) technology, the assay enabled simple and rapid characterization of compound and protein interaction in a high throughput format. This assay was used to examine potency of the compounds in inhibiting the protein-protein interaction between SOS1 and KRAS-G12D. […] Low IC50 values are indicative of high potency of the SOS1 inhibitor compound to disrupt SOS1 and Kras-G12D interaction.
Protein Expression and Purification. The corresponding gene sequence to human SOS1 (residues 564-1049, UniProt ID: Q07889; SEQ ID NO: 2) was synthesized and fused in frame with GST expression vector. After the desired sequence was confirmed, plasmid containing the sequence was transformed into the E. coli strain BL21 (DE3). Bacteria were growing at 37° C. in LB media containing 50 μg/ml Kanamycin to give OD600 of 0.6-0.8. Then 0.2 mM IPTG was added to induce protein expression for 16 hours at 17° C. Bacteria were harvested by centrifugation and stored at −80° C. Bacteria pellets were resuspended in lysis buffer (25 mM Tris-HCl, 500 mM NaCl, 2 mM DTT, 2.3% sucrose, 0.3% dextran-10, 1 mM PMSF, pH 7.5) and lysed using high-pressure homogenizer. The lysate was cleared by centrifugation for 30 minutes (12000 rpm at 4° C.). The supernatant containing GST-SOS1 fragment was purified sequentially through Glutathione column and gel filtration (Hiload 16/600 Superdex […] column, Cytiva). The purified GST-SOS1 fragment was confirmed by SDS-PAGE and stored in 25 mM Tris-HCl, 100 mM NaCl, 1 mM DTT, 2.3% sucrose, 0.3% dextran-10, pH 7.5 at −80° C.
Kras-G12D Protein Purification. The sequence corresponding to human KRAS-G12D (residues 1-169, UniProt P01116-2; SEQ ID NO: 1) was synthesized and fused in frame with His-AVI-TEV vector. The plasmid was transformed into the E. coli strain BL21 (containing a plasmid that can generate BirA enzyme). Bacteria were growing at 37° C. in TB media containing 100 μg/ml ampicillin and 50 μg/ml Kanamycin to give OD600 of 0.6-0.8. The 0.5 mM IPTG and 50 mg/l biotin were added to induce protein expression for 16 hours at 25° C. Bacteria were harvested by centrifugation and stored at −80° C. Bacteria pellets were re-suspended in lysis buffer (20 mM Tris-HCl, 500 mM NaCl, 5 mM MgCl2, 2 mM […], 5% glycerol, pH 8.0) and lysed using high-pressure homogenizer. The lysate was cleared by centrifugation for 30 minutes (12000 rpm at 4° C.). The supernatant containing HIS-AVI-TEV-KRAS-G12D fragment was purified sequentially through Ni-NTA column (SMART), Streptactin column (SMART), and gel filtration (Hiload 16/600 Superdex 75 pg, GE). The purified HIS-AVI-TEV-KRAS-G12D fragment was confirmed by SDS-PAGE and stored in 50 mM HEPES-NaOH, 100 mM NaCl, 1 mM DTT, 5 mM MgCl2, pH 7.5 at −80° C.
Protein-Protein Interaction Assay. An assay buffer containing 50 mM HEPES, pH 7.5, 50 mM NaCl, 0.01% Brij-35, 1 mM TCEP, 0.1% BSA was prepared, and concentration series of test compounds were generated spanning from 0.5 nM to 10 μM over 10 3-fold serial dilutions in a 384-well assay plate at a volume of 20 pL. The purified GST-SOS1 catalytic domain (residues 564-1049) was first diluted in assay buffer and 5 μl of SOS1 (final concentration 2.5 nM in assay mixture) was directly dispensed into compound plates. After a spin down at 1000 RPM for 30 seconds, the SOS1/compound mixture was incubated at 25° C. for 15 minutes to allow the reaction between SOS1 and the compound. A KRAS-G12D mixture was prepared by incubation of avi-tagged Kras-G12D (residue 1-169) and GDP in assay buffer containing 10 mM MgCl2 at room temperature for 10 minutes. A KRAS-G12D and GDP mixture (5 μL) was added to the assay plate (final KRAS-G12D was 100 nM and GDP was 10 uM). The plate was centrifuged at 1000 rpm for 30 sec and incubated at 25° C. for 60 minutes. […]

| IC50 | SMILES |
| --- | --- |
| < 100 nM | C#C[C@@H](Nc1nc(C)nc2cc(=O)n(C3(C#C)CC3)cc12)c1cccc(C(F)(F)F)c1C [Compound 5, (R)-6-(1-ethynylcyclopropyl)-2-methyl-4-((1-(2-methyl-3-(trifluoromethyl)phenyl)prop-2-yn-1-yl)amino)pyrido[4,3-d]pyrimidin-7(6H)-one] |
| < 100 nM | C#C[C@@H](Nc1nc(C)nc2cc(=O)n(C3(C#N)CC3)cc12)c1cccc(C(F)(F)F)c1C [Compound 6, (R)-1-(2-methyl-4-((1-(2-methyl-3-(trifluoromethyl)phenyl)prop-2-yn-1-yl)amino)-7-oxopyrido[4,3-d]pyrimidin-6(7H)-yl)cyclopropane-1-carbonitrile] |
| < 100 nM | C#C[C@@H](Nc1nc(C)nc2cc(=O)n(C3(CF)CC3)cc12)c1cccc(C(F)F)c1F [Compound 32, (R)-4-((1-(3-(difluoromethyl)-2-fluorophenyl)prop-2-yn-1-yl)amino)-6-(1-(fluoromethyl)cyclopropyl)-2-methylpyrido[4,3-d]pyrimidin-7(6H)-one] |
| < 100 nM | C#C[C@@H](Nc1nc(C)nc2cc(=O)n(C3(C)CC3)cc12)c1cccc2c1OCC2(F)F [Compound 21, (R)-4-((1-(3,3-difluoro-2,3-dihydrobenzofuran-7-yl)prop-2-yn-1-yl)amino)-2-methyl-6-(1-methylcyclopropyl)pyrido[4,3-d]pyrimidin-7(6H)-one] |
| < 100 nM | C#C[C@@H](Nc1nc(C)nc2cc(=O)n(C(C)C(F)(F)F)cc12)c1cccc(C(F)(F)F)c1C (mixture of isomers) [Compound 8, 2-methyl-4-(((R)-1-(2-methyl-3-(trifluoromethyl)phenyl)prop-2-yn-1-yl)amino)-6-(1,1,1-trifluoropropan-2-yl)pyrido[4,3-d]pyrimidin-7(6H)-one] |
| < 100 nM | C#C[C@@H](Nc1nc(C)nc2cc(=O)n(C3CC4(CNC4)C3)cc12)c1cccc(C(F)F)c1C [Compound 37, (R)-4-((1-(3-(difluoromethyl)-2-methylphenyl)prop-2-yn-1-yl)amino)-2-methyl-6-(2-azaspiro[3.3]heptan-6-yl)pyrido[4,3-d]pyrimidin-7(6H)-one] |
| < 100 nM | C#C[C@@H](Nc1nc(C)nc2cc(=O)n(C3CC4(C3)CN(C)C4)cc12)c1cccc(C(F)F)c1C [Compound 38, (R)-4-((1-(3-(difluoromethyl)-2-methylphenyl)prop-2-yn-1-yl)amino)-2-methyl-6-(2-methyl-2-azaspiro[3.3]heptan-6-yl)pyrido[4,3-d]pyrimidin-7(6H)-one] |
| < 100 nM | C#C[C@@H](Nc1nc(C)nc2c(F)c(=O)n(C3(C(F)F)CC3)cc12)c1cccc(C(F)(F)F)c1C [Compound 14, (R)-6-(1-(difluoromethyl)cyclopropyl)-8-fluoro-2-methyl-4-((1-(2-methyl-3-(trifluoromethyl)phenyl)prop-2-yn-1-yl)amino)pyrido[4,3-d]pyrimidin-7(6H)-one] |
| < 100 nM | C#C[C@@H](Nc1nc(C)nc2cc(=O)n(C3(C)CC3)cc12)c1cccc2c1CCC2(F)F [Compound 23, (R)-4-((1-(1,1-difluoro-2,3-dihydro-1H-inden-4-yl)prop-2-yn-1-yl)amino)-2-methyl-6-(1-methylcyclopropyl)pyrido[4,3-d]pyrimidin-7(6H)-one] |
| < 100 nM | C#C[C@@H](Nc1ncnc2c1cc(C1(F)CCN(C(C)=O)CC1)c(=O)n2C)c1cccc(C(F)F)c1F [Compound 47, 6-(1-acetyl-4-fluoropiperidin-4-yl)-4-{[(1R)-1-[3-(difluoromethyl)-2-fluorophenyl]prop-2-yn-1-yl]amino}-8-methyl-7H,8H-pyrido[2,3-d]pyrimidin-7-one] |
| 100 to 200 nM | C#C[C@@H](Nc1nc(C)nc2cc(=O)n(N[C@H]3CCOC3)cc12)c1cccc(C(F)F)c1C [Compound 16, 4-(((R)-1-(3-(difluoromethyl)-2-methylphenyl)prop-2-yn-1-yl)amino)-2-methyl-6-(((S)-tetrahydrofuran-3-yl)amino)pyrido[4,3-d]pyrimidin-7(6H)-one] |
| < 100 nM | C#C[C@@H](Nc1ncnc2cc(=O)n(C3(C(F)F)CC3)cc12)c1cccc(C(F)F)c1C [Compound 40, (R)-4-((1-(3-(difluoromethyl)-2-methylphenyl)prop-2-yn-1-yl)amino)-6-(1-(difluoromethyl)cyclopropyl)pyrido[4,3-d]pyrimidin-7(6H)-one] |
| < 100 nM | C#C[C@@H](Nc1nc(C)nc2c(Br)c(=O)n(C3(C(F)F)CC3)cc12)c1cccc(C(F)F)c1C [Compound 39, (R)-8-bromo-4-((1-(3-(difluoromethyl)-2-methylphenyl)prop-2-yn-1-yl)amino)-6-(1-(difluoromethyl)cyclopropyl)-2-methylpyrido[4,3-d]pyrimidin-7(6H)-one] |
| < 100 nM | C#C[C@@H](Nc1nc(C)nc2cc(=O)n(C3CCC3)cc12)c1cccc(C(F)(F)F)c1C [Compound 3, (R)-6-cyclobutyl-2-methyl-4-((1-(2-methyl-3-(trifluoromethyl)phenyl)prop-2-yn-1-yl)amino)pyrido[4,3-d]pyrimidin-7(6H)-one] |
